# Values of other authors as cited in US20230414599A1, “NICOTINAMIDE, NICOTINAMIDE PRECURSORS AND NICOTINAMIDE METABOLITES AND COMPOSITIONS THEREOF FOR REDUCING THE TIME TO RESOLUTION OF SYMPTOMS IN PATIENTS WITH COVID-19 AND OTHER VIRAL INFECTIONS” (CONARIS RESEARCH INSTITUTE AG, priority 2020, published 2023).
# Tested on: COVID-19
# Settings: patients with mild or moderate COVID-19; interim analysis; cited from earlier work
smiles,measurement,value
CC(C)C(=O)OC[C@H]1O[C@@H](n2ccc(NO)nc2=O)[C@H](O)[C@@H]1O [molnupiravir],Reduction of the risk of hospitalization or death compared to placebo,approximately 50%
